The values that follow come from US4347319A, “Microbiological epoxidation process” (priority 1980, dated 1982).

Type in all cases: cell-based
Assay [1] deals with Methylocystis parvus (CRL 18 PM4) NRRL B-11,204. Put plainly: Oxidation by washed cell suspensions of methane-grown cells. As to the method: (§1) The pH of the nutrient medium was adjusted to 7.0 by the addition of acid or base and 50 ml samples of the nutrient medium were charged into a plurality of 300 ml shaker flasks. The shaker flasks were inoculated with an inoculating loop of cells from an agar plate containing homogeneous colonies of the microorganisms on the plate (the purity of the isolates was confirmed by microscopic examination. The isolates had been maintained on agar plates under an atmosphere of methane and air having a 1:1 v/v gas ratio which had been transferred evey two weeks. The gaseous phase of the inoculated flasks was then replaced with a gas mixture comprised of methane and air having a ratio of 1:1 on a v/v basis. The inoculated flasks were sealed air tight and were incubated on a rotary shaker of orbital radius 2.5 cm at 250 rpm and at 30° C. for two days until turbidity in the medium had developed.
(§2) The cells were harvested by centrifugation at 10,000×g. at 4° C. for 30 minutes. The cell pellet was washed twice with a 0.15 M phosphate buffer at a pH of 7.0 (containing 0.002 M MgCl2). The washed cells were then suspended in a 0.15 M phosphate buffer at pH 7.0.
(§3) A 0.5 ml sample of each washed cell suspension (2 mg cells) was put into 10 ml vials at 4° C. which were sealed with a rubber cap. The gaseous phase of the vials was removed with vacuum and then was replaced with a gas mixture of the oxidative substrate (e.g., methane) and oxygen at a 1:1 v/v ratio. The vials were then incubated at 30 ° C. on a rotary shaker at 300 rpm. Samples of product (3 μl) were withdrawn periodically with a microsyringe and the products were analyzed by gas chromatography (ionization flame detector column).
(§4) The newly discovered and isolated microorganism strains of the present invention were each grown aerobically in the presence of methane in the manner described above. The methane-grown microbial cells were then washed, recovered and put to use in oxidizing an oxidative substrate by the procedure described above except in the case of a liquid substrate 10 μl of the substrate were used.

Assay [2] deals with Methylomonas streptobacterium (CRL 17 PM3) NRRL B-11,208. Described as above. Conditions: methane-grown washed cells, 30° C.; methane to methanol, alkene to 1,2-epoxide. As to the method:
as §1, §2, §3, §4

The test system of assay [3] is Methylobacter chroococcum (CRL 23 PM8) NRRL B-11,215. The description is as above. Conditions: methane-grown washed cells, 30° C.; methane to methanol, alkene to 1,2-epoxide. Here is the method: as §1, §2, §3, §4
Assay [4] has as its system Methylomonas albus (CRL M8Y) NRRL B-11,207. Described as above. Conditions: methane-grown washed cells, 30° C.; methane to methanol, alkene to 1,2-epoxide. Here is the method:
as §1, §2, §3, §4

The test system of assay [5] is Methylomonas rosaceus (CRL M7P) NRRL B-11,213. Described as above. Conditions: 30° C., methane to methanol, alkene to 1,2-epoxide. Here is the method: as §1, §2, §3, §4
Assay [6] deals with Methylomonas agile (CRL 22 PM9) NRRL B-11,209. The assay is described as above. Conditions: methane-grown washed cells, 30° C.; methane to methanol, alkene to 1,2-epoxide. Here is the method: as §1, §2, §3, §4
In assay [7] the test system is Methylosinus sporium (CRL 16 PM2) NRRL B-11,203. The assay is described as above. Conditions: methane-grown washed cells, 30° C.; methane to methanol, alkene to 1,2-epoxide. Here is the method:
as §1, §2, §3, §4

Assay [8] relates to Methylosinus trichosporium (CRL 15 PM1) NRRL B-11,202. The assay is described as above. The settings on record: methane-grown washed cells, 30° C.; methane to methanol, alkene to 1,2-epoxide. As to the method: as §1, §2, §3, §4
For assay [9], the system named is Methylococcus minimus (CRL 24 PM12) NRRL B-11,220. Described as above. Conditions: methane-grown washed cells, 30° C.; methane to methanol, alkene to 1,2-epoxide. Here is the method:
as §1, §2, §3, §4

The test system of assay [10] is Methylomonas methanica (CRL M4P) NRRL B-11,205. The description is as above. Conditions: methane-grown washed cells, 30° C.; methane to methanol, alkene to 1,2-epoxide. Here is the method:
as §1, §2, §3, §4

The subject of assay [11] is Methylobacter vinelandii (CRL M5Y) NRRL B-11,218. Described as above. The settings on record: methane-grown washed cells, 30° C.; methane to methanol, alkene to 1,2-epoxide. As to the method:
as §1, §2, §3, §4

Assay [12] has as its system Methylomonas methanica (CRL 21 PM7) NRRL B-11,206. The assay is described as above. The settings on record: methane-grown washed cells, 30° C.; methane to methanol, alkene to 1,2-epoxide. Here is the method: as §1, §2, §3, §4
Assay [13] concerns Methylobacterium organophilum (CRL 26 R6) NRRL B-11,222. The description is as above. The settings on record: methane-grown washed cells, 30° C.; methane to methanol, alkene to 1,2-epoxide. As to the method:
as §1, §2, §3, §4

The test system of assay [14] is Methylomonas rubrum (CRL 20 PM6) NRRL B-11,211. The assay is described as above. Conditions: methane-grown washed cells, 30° C.; methane to methanol, alkene to 1,2-epoxide. As to the method:
as §1, §2, §3, §4

Assay [15] has as its system Methylococcus capsulatus (CRL M1) NRRL B-11,219. Described as above. Conditions: methane-grown washed cells, 30° C.; methane to methanol, alkene to 1,2-epoxide. As to the method:
as §1, §2, §3, §4

Assay [16] has as its system Methylomonas rubrum (CRL M6P) NRRL B-11,210. The description is as above. Conditions: methane-grown washed cells, 30° C.; methane to methanol, alkene to 1,2-epoxide. As to the method:
as §1, §2, §3, §4

Assay [17] has as its system Methylococcus capsulatus (CRL 25 PM13) NRRL B-11,221. The assay is described as above. The settings on record: methane-grown washed cells, 30° C.; methane to methanol, alkene to 1,2-epoxide. Here is the method: as §1, §2, §3, §4
Assay [18] has as its system Methylobacter chroococcum (CRL M6) NRRL B-11,214. The assay is described as above. Conditions: methane-grown washed cells, 30° C.; methane to methanol, alkene to 1,2-epoxide. Here is the method: as §1, §2, §3, §4
In assay [19] the test system is Methylobacter bovis (CRL 19 PM5) NRRL B-11,217. Described as above. Conditions: methane-grown washed cells, 30° C.; methane to methanol, alkene to 1,2-epoxide. Here is the method:
as §1, §2, §3, §4

Assay [20] relates to Methylobacter bovis (CRL M1Y) NRRL B-11,216. The description is as above. Conditions: methane-grown washed cells, 30° C.; methane to methanol, alkene to 1,2-epoxide. As to the method: as §1, with “The inoculated flasks were sealed air tight and were incubated on a rotary shaker of orbital radius 2.5 cm at 250 rpm and at 30° C. for two days until turbidity in the medium had developed.” left out
as §2, §3, §4

In assay [21] the test system is Methylomonas rosaceus (CRL M10P) NRRL B-11,212. Here is the method: as §1, §2, §3, §4

Take `CCC(C)=O` [Butanone]: the “Conversion Rate to Ketone” value in assay [1] (methane-grown cells, product 2-butanone) was found to be 1.0 μmoles/hr/mg Protein.
Regarding `C=C` [Ethylene], the “Oxidative Conversion Rates” value stood at 0.7 μmole/hr/mg protein in assay [2]; 0.9 μmole/hr/mg protein in assay [1] (methane-grown washed cells, 30° C., methane to methanol, alkene to 1,2-epoxide); 1.2 μmole/hr/mg protein in [3]; 1.8 μmole/hr/mg protein in assay [4]; 2.9 μmole/hr/mg protein in [5]; 2.2 μmole/hr/mg protein in [6]. The “Oxidative Conversion Rates” value in assay [7] is on record as 1.3 μmole/hr/mg protein; in [8], 2.5 μmole/hr/mg protein; in assay [9] it was 1.2 μmole/hr/mg protein; in assay [10] it was 1.0 μmole/hr/mg protein; in assay [11] it was 1.2 μmole/hr/mg protein; in [12], 2.1 μmole/hr/mg protein. Also, the “Oxidative Conversion Rates” value in assay [13] is listed as 0.9 μmole/hr/mg protein; in assay [14], 1.1 μmole/hr/mg protein; in assay [15], 5.7 μmole/hr/mg protein; in assay [16], 0.7 μmole/hr/mg protein; in assay [17], 0.8 μmole/hr/mg protein; in assay [18] it was 1.6 μmole/hr/mg protein. Besides, the “Oxidative Conversion Rates” value in [19] worked out at 1.3 μmole/hr/mg protein; in [20], 0.64 μmole/hr/mg protein; in assay [21], 4.7.
